# Data from PubChem BioAssay AID2060912 (Molecular Pharmacology Branch, DTP, NCI, 2025).
# Test system: HUVEC/MSC spheroids viability
# Experiment: Human HUVEC/MSC cell line growth inhibition [KRAS2];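 for viability, T/C: percent of DMSO vehicle control luminescence so 100% = untreated viability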
# Settings: for IC50: curve of first compound; for viability, T/C: stronger effect = lower value
# Procedure, shortened: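 Spheroids of human HUVEC plus MSCs, without tumor cells, were treated with single agents and combinations. Each drug was tested in half-log steps down from near its clinical Cmax, or from 10 microM when Cmax was unknown. HUVEC and hMSC were used at passage </=5.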
# [1] = second compound 0.00949 µM, first compound 0.0316 µM
# [2] = second compound 0.00949 µM, first compound 0.1 µM
# [3] = second compound 0.03 µM, first compound 0.0316 µM
# [4] = second compound 0.03 µM, first compound 0.1 µM
# [5] = second compound 0.0949 µM, first compound 0.0316 µM
# [6] = second compound 0.0949 µM, first compound 0.1 µM
# [7] = second compound 0.3 µM, first compound 0.0316 µM
# [8] = second compound 0.3 µM, first compound 0.1 µM
# [9] = second compound 0.949 µM, first compound 0.0316 µM
# [10] = second compound 0.949 µM, first compound 0.1 µM
# [11] = second compound 3 µM, first compound 0.0316 µM
# [12] = second compound 3 µM, first compound 0.1 µM
compound,measurement,setting,value
CC1OCC2(CCN(c3cnc(Sc4ccnc(N)c4Cl)c(N)n3)CC2)C1N (stereo unspecified) + C=CC(=O)N1CCN(c2nc(OCC3CCCN3C)nc3c2CCN(c2cccc4cccc(C)c24)C3)CC1CC#N,IC50,second compound 0.00949 µM,> 10000 nM
same,IC50,second compound 0.03 µM,> 10000 nM
same,IC50,second compound 0.0949 µM,> 10000 nM
same,IC50,second compound 0.3 µM,> 10000 nM
same,IC50,second compound 0.949 µM,5360 nM
same,IC50,second compound 3 µM,387 nM
same,"viability, T/C",[1],112%
same,"viability, T/C",[2],102%
same,"viability, T/C","second compound 0.00949 µM, first compound 0.316 µM",99.9%
same,"viability, T/C","second compound 0.00949 µM, first compound 1 µM",82.3%
same,"viability, T/C","second compound 0.00949 µM, first compound 3.16 µM",71.1%
same,"viability, T/C","second compound 0.00949 µM, first compound 10 µM",73.6%
same,"viability, T/C",[3],109%
same,"viability, T/C",[4],116%
same,"viability, T/C","second compound 0.03 µM, first compound 0.316 µM",89.8%
same,"viability, T/C","second compound 0.03 µM, first compound 1 µM",87.3%
same,"viability, T/C","second compound 0.03 µM, first compound 3.16 µM",66%
same,"viability, T/C","second compound 0.03 µM, first compound 10 µM",67.9%
same,"viability, T/C",[5],98.5%
same,"viability, T/C",[6],96.4%
same,"viability, T/C","second compound 0.0949 µM, first compound 0.316 µM",90%
same,"viability, T/C","second compound 0.0949 µM, first compound 1 µM",79.5%
same,"viability, T/C","second compound 0.0949 µM, first compound 3.16 µM",74.1%
same,"viability, T/C","second compound 0.0949 µM, first compound 10 µM",66.5%
same,"viability, T/C",[7],86.7%
same,"viability, T/C",[8],90.7%
same,"viability, T/C","second compound 0.3 µM, first compound 0.316 µM",89.4%
same,"viability, T/C","second compound 0.3 µM, first compound 1 µM",69.1%
same,"viability, T/C","second compound 0.3 µM, first compound 3.16 µM",72.9%
same,"viability, T/C","second compound 0.3 µM, first compound 10 µM",56.1%
same,"viability, T/C",[9],63%
same,"viability, T/C",[10],79.5%
same,"viability, T/C","second compound 0.949 µM, first compound 0.316 µM",83.2%
same,"viability, T/C","second compound 0.949 µM, first compound 1 µM",71.8%
same,"viability, T/C","second compound 0.949 µM, first compound 3.16 µM",60.4%
same,"viability, T/C","second compound 0.949 µM, first compound 10 µM",37.9%
same,"viability, T/C",[11],55.4%
same,"viability, T/C",[12],67.6%
same,"viability, T/C","second compound 3 µM, first compound 0.316 µM",48%
same,"viability, T/C","second compound 3 µM, first compound 1 µM",35.7%
same,"viability, T/C","second compound 3 µM, first compound 3.16 µM",4.99%
same,"viability, T/C","second compound 3 µM, first compound 10 µM",0.43%
CN(C)C/C=C/C(=O)Nc1cc2c(Nc3ccc(F)c(Cl)c3)ncnc2cc1O[C@H]1CCOC1 + C=CC(=O)N1CCN(c2nc(OCC3CCCN3C)nc3c2CCN(c2cccc4cccc(C)c24)C3)CC1CC#N,IC50,second compound 0.00949 µM,> 100 nM
same,IC50,second compound 0.03 µM,> 100 nM
same,IC50,second compound 0.0949 µM,> 100 nM
same,IC50,second compound 0.3 µM,> 100 nM
same,IC50,second compound 0.949 µM,> 100 nM
same,IC50,second compound 3 µM,> 100 nM
same,"viability, T/C","second compound 0.00949 µM, first compound 0.000316 µM",79.2%
same,"viability, T/C","second compound 0.00949 µM, first compound 0.001 µM",95.1%
same,"viability, T/C","second compound 0.00949 µM, first compound 0.00316 µM",88.5%
same,"viability, T/C","second compound 0.00949 µM, first compound 0.01 µM",82.1%
same,"viability, T/C",[1],67.7%
same,"viability, T/C",[2],74.4%
same,"viability, T/C","second compound 0.03 µM, first compound 0.000316 µM",92.5%
same,"viability, T/C","second compound 0.03 µM, first compound 0.001 µM",92.5%
same,"viability, T/C","second compound 0.03 µM, first compound 0.00316 µM",90.8%
same,"viability, T/C","second compound 0.03 µM, first compound 0.01 µM",78.8%
same,"viability, T/C",[3],88.4%
same,"viability, T/C",[4],99.2%
same,"viability, T/C","second compound 0.0949 µM, first compound 0.000316 µM",85.7%
same,"viability, T/C","second compound 0.0949 µM, first compound 0.001 µM",84.9%
same,"viability, T/C","second compound 0.0949 µM, first compound 0.00316 µM",82.3%
same,"viability, T/C","second compound 0.0949 µM, first compound 0.01 µM",79.8%
same,"viability, T/C",[5],82.9%
same,"viability, T/C",[6],95.2%
same,"viability, T/C","second compound 0.3 µM, first compound 0.000316 µM",82.6%
same,"viability, T/C","second compound 0.3 µM, first compound 0.001 µM",84.5%
same,"viability, T/C","second compound 0.3 µM, first compound 0.00316 µM",76.1%
same,"viability, T/C","second compound 0.3 µM, first compound 0.01 µM",73.4%
same,"viability, T/C",[7],80.4%
same,"viability, T/C",[8],63%
same,"viability, T/C","second compound 0.949 µM, first compound 0.000316 µM",63.9%
same,"viability, T/C","second compound 0.949 µM, first compound 0.001 µM",69.8%
same,"viability, T/C","second compound 0.949 µM, first compound 0.00316 µM",72.3%
same,"viability, T/C","second compound 0.949 µM, first compound 0.01 µM",80%
same,"viability, T/C",[9],72.5%
same,"viability, T/C",[10],73%
same,"viability, T/C","second compound 3 µM, first compound 0.000316 µM",82.1%
same,"viability, T/C","second compound 3 µM, first compound 0.001 µM",90.3%
same,"viability, T/C","second compound 3 µM, first compound 0.00316 µM",82%
same,"viability, T/C","second compound 3 µM, first compound 0.01 µM",73.8%
same,"viability, T/C",[11],79%
same,"viability, T/C",[12],93.7%
CC(=O)OC12COC1CC(O)C1(C)C(=O)C(O)C3=C(C)C(OC(=O)C(O)C(NC(=O)OC(C)(C)C)c4ccccc4)CC(O)(C(OC(=O)c4ccccc4)C21)C3(C)C (stereo unspecified) + COc1cc2nc(C)nc(NC(C)c3cc(N)cc(C(F)(F)F)c3)c2cc1OC1CCOC1,IC50,second compound 0.0316 µM,< 9.49 nM
same,IC50,second compound 0.1 µM,> 3000 nM
same,IC50,second compound 0.316 µM,< 9.49 nM
same,IC50,second compound 1 µM,< 9.49 nM
same,IC50,second compound 3.16 µM,> 3000 nM
same,IC50,second compound 10 µM,2770 nM
same,"viability, T/C","second compound 0.0316 µM, first compound 0.00949 µM",47.1%
same,"viability, T/C","second compound 0.0316 µM, first compound 0.03 µM",55.3%
same,"viability, T/C","second compound 0.0316 µM, first compound 0.0949 µM",53%
same,"viability, T/C","second compound 0.0316 µM, first compound 0.3 µM",36.7%
same,"viability, T/C","second compound 0.0316 µM, first compound 0.949 µM",51.9%
same,"viability, T/C","second compound 0.0316 µM, first compound 3 µM",60.4%
same,"viability, T/C","second compound 0.1 µM, first compound 0.00949 µM",50.7%
same,"viability, T/C","second compound 0.1 µM, first compound 0.03 µM",57%
same,"viability, T/C","second compound 0.1 µM, first compound 0.0949 µM",54%
same,"viability, T/C","second compound 0.1 µM, first compound 0.3 µM",44%
same,"viability, T/C","second compound 0.1 µM, first compound 0.949 µM",54.7%
same,"viability, T/C","second compound 0.1 µM, first compound 3 µM",61.5%
same,"viability, T/C","second compound 0.316 µM, first compound 0.00949 µM",45.5%
same,"viability, T/C","second compound 0.316 µM, first compound 0.03 µM",44.4%
same,"viability, T/C","second compound 0.316 µM, first compound 0.0949 µM",44.8%
same,"viability, T/C","second compound 0.316 µM, first compound 0.3 µM",49.3%
same,"viability, T/C","second compound 0.316 µM, first compound 0.949 µM",47.5%
same,"viability, T/C","second compound 0.316 µM, first compound 3 µM",57.1%
same,"viability, T/C","second compound 1 µM, first compound 0.00949 µM",45.5%
same,"viability, T/C","second compound 1 µM, first compound 0.03 µM",47.8%
same,"viability, T/C","second compound 1 µM, first compound 0.0949 µM",37.2%
same,"viability, T/C","second compound 1 µM, first compound 0.3 µM",57.1%
same,"viability, T/C","second compound 1 µM, first compound 0.949 µM",63.6%
same,"viability, T/C","second compound 1 µM, first compound 3 µM",47.9%
same,"viability, T/C","second compound 3.16 µM, first compound 0.00949 µM",51.5%
same,"viability, T/C","second compound 3.16 µM, first compound 0.03 µM",48.3%
same,"viability, T/C","second compound 3.16 µM, first compound 0.0949 µM",58.6%
same,"viability, T/C","second compound 3.16 µM, first compound 0.3 µM",48.1%
same,"viability, T/C","second compound 3.16 µM, first compound 0.949 µM",58.3%
same,"viability, T/C","second compound 3.16 µM, first compound 3 µM",50.6%
same,"viability, T/C","second compound 10 µM, first compound 0.00949 µM",52.4%
same,"viability, T/C","second compound 10 µM, first compound 0.03 µM",71.7%
same,"viability, T/C","second compound 10 µM, first compound 0.0949 µM",59.2%
same,"viability, T/C","second compound 10 µM, first compound 0.3 µM",58.1%
same,"viability, T/C","second compound 10 µM, first compound 0.949 µM",59.8%
same,"viability, T/C","second compound 10 µM, first compound 3 µM",49.3%
